Measurements: publication PMC9995496, “A screen for MeCP2-TBL1 interaction inhibitors using a luminescence-based assay” (Scientific Reports, 2023)
Structures can show the parent of a compound that is named as a salt. Where two headings read alike, the source gives them in different places.

Test system: PRKACA-PRKAR2A interaction (SmBiT-PRKACA / LgBiT-PRKAR2A), protein kinase A
Design: NanoLuc complementation counter-screen in cell extract, PRKACA with PRKAR2A, loss of luminescence, detects NanoLuc interference
Conditions: 0.5 h, 20 µM, inhibitor
[1] = counter-screen for NanoLuc interference

| Structure (SMILES) | Inh (PKA) [1] | further results |
| --- | --- | --- |
| O=C(O)c1cccc(-c2noc(-c3ccccc3F)n2)c1 [UM0142085:01, PTC124 (Ataluren)] | 9.195% |  |
| Cc1cc(C)c(Nc2ccnc(Nc3ccc(C#N)cc3)n2)c(C)c1 [UM0142086:01, Dapivirine (TMC120)] | 39.35% |  |
| COc1ncc(-c2ccc3nccc(-c4ccnnc4)c3c2)cc1NS(=O)(=O)c1ccc(F)cc1F [UM0142087:01, GSK2126458] | 7.374% |  |
| CNC(=O)c1ccccc1Nc1nc(Nc2ccc(N3CCOCC3)cc2OC)ncc1Cl [UM0142088:01, TAE226 (NVP-TAE226)] | 15.32% |  |
| CC[C@@H]1C(=O)N(C)c2cnc(Nc3ccc(C(=O)N[C@H]4CC[C@H](N5CCN(CC6CC6)CC5)CC4)cc3OC)nc2N1C(C)C [UM0142089:01, BI6727 (Volasertib)] | 8.077% |  |
| CC(C)[C@H](CO)Nc1nc(Nc2ccc(C(=O)O)c(Cl)c2)c2ncn(C(C)C)c2n1 [UM0142090:01, Purvalanol B] | 25.51% |  |
| C[C@H]1CO[C@@H]2Cn3cc(C(=O)NCc4ccc(F)cc4F)c(=O)c(O)c3C(=O)N12 [UM0142091:01, GSK744 (S/GSK1265744)] | 7.532% |  |
| N#Cc1ccc(OC2CCC(NC(=O)CCSc3nc4ccccc4c(=O)[nH]3)CC2)cc1 (centres unmarked) [UM0142092:01, Tankyrase Inhibitors (TNKS) 49] | 5.667% |  |
| Cc1[nH]nc2ccc(-c3cncc(OC[C@@H](N)Cc4ccccc4)c3)cc12 [UM0142094:01, A-674563] | 19.6% |  |
| NC1(Cc2ccc(Cl)cc2)CCN(c2ncnc3[nH]ccc23)CC1 [UM0142095:01, CCT128930] | 38.25% |  |
| Cc1ccccc1CN1C(=O)C2=C(CCN(Cc3ccccc3)C2)N2CCN=C12 [UM0142096:01, TIC10] |  | Inh (PKA): 4.346 |
| COc1cc(N2CCC(N)CC2)ccc1Nc1ncc(Cl)c(-c2c[nH]c3ccccc23)n1 [UM0142097:01, AZD-3463] | 51% |  |
| C[C@]12CC[C@H](O)CC1=CC[C@@H]1[C@@H]2CC[C@]2(C)C(n3cnc4ccccc43)=CC[C@@H]12 [UM0142098:01, TOK-001] | 15.03% |  |
| O=C(NC(NC(=S)Nc1ccc(F)c([N+](=O)[O-])c1)C(Cl)(Cl)Cl)C(c1ccccc1)c1ccccc1 (centres unmarked) [UM0142099:01, CGK733] | 35.68% |  |
| O=C(/C=C/c1cccnc1)NCCCCC1CCN(C(=O)c2ccccc2)CC1 [UM0142102:01, FK 866 hydrochloride] |  | Inh (PKA) (counter-screen for NanoLuc interference, Inh (PKA)): 0.5645% |
| CN1CCN(c2ccc(Nc3cc(-c4cccc(-n5ccc6cc(C7CC7)cc(F)c6c5=O)c4CO)cn(C)c3=O)nc2)CC1 [UM0142104:01, RN486] | 0.8611% |  |
| O=C(NCc1ccc(Oc2ccccc2)cc1)c1nc(-c2cc(Br)c(O)c(Br)c2)no1 [UM0142105:01, IOWH-032] | 17.03% |  |
| Cc1cnc(NC(=O)Nc2cc(Br)c(C)cc2OC[C@@H]2CNCCO2)cn1 [UM0142106:01, LY2603618] | 6.637% |  |
| CN1CC[C@H](c2c(O)cc(O)c3c(=O)cc(-c4ccccc4Cl)oc23)[C@H](O)C1 [UM0142107:01, Flavopiridol hydrochloride] | 4.692% |  |
| CN(C)C(=O)c1cc2cnc(Nc3ccc(N4CCNCC4)cn3)nc2n1C1CCCC1 [UM0142108:01, LEE011] | 5.257% |  |
| CCCCCOC(=O)Nc1nc(=O)n([C@@H]2O[C@H](C)[C@@H](O)[C@H]2O)cc1F [UM0142109:01, Capecitabine] | 3.507% |  |
| N#C[C@@H]1C[C@@H]2C[C@@H]2N1C(=O)[C@@H](N)C12CC3CC(CC(O)(C3)C1)C2 [UM0142110:01, Saxagliptin] | 1.3% |  |
| Cc1nn(-c2ccccc2)c(C)c1/C=N/N1CCN(Cc2ccccc2)CC1 [UM0142111:01, SANT-1] | 15.15% |  |
| CC(C)[C@H]1C(=O)N[C@@H](CCCNC(=N)N)C(=O)NCC(=O)N[C@@H](CC(=O)O)C(=O)N[C@H](Cc2ccccc2)C(=O)N1C [UM0142112:01, Cilengitide] | 0.5722% |  |

| Structure (SMILES) | Inh (PKA) [1] | further results |
| --- | --- | --- |
| O=C1NCCCc2c1oc1ccc(O)cc21 [UM0142113:01, CID 755673] | 2.979% |  |
| CC[C@@H](N)CNc1ccnc(-c2cc(-c3cnn(C)c3)ccc2O)n1 [UM0142114:01, CRT 0066101] | 18.6% |  |
| O=c1ncn2nc(Sc3ccc(F)cc3F)ccc2c1-c1c(Cl)cccc1Cl [UM0142117:01, VX-745] | 8.434% |  |
| CN(c1ccccc1CNc1nc(Nc2ccc3c(c2)CC(=O)N3)ncc1C(F)(F)F)S(C)(=O)=O [UM0142118:01, PF-431396] | 63.93% |  |
| FC(F)(F)Oc1ccc2nc(-c3ccc(OCCOCCOc4ccc(-c5nc6ccc(OC(F)(F)F)cc6[nH]5)nc4)cn3)[nH]c2c1 [UM0142119:01, AI-10-49] | 39.19% |  |
| C=CC(=O)Nc1ccc(CN2C(=O)N(c3cc(OC)cc(OC)c3)Cc3cnc(Nc4ccc(N5CCN(C)CC5)cc4)nc32)cc1 [UM0142120:01, FIIN-2] | 9.452% |  |
| CC(C)(C)C(O)/C=C/c1ccc2c(c1)OCO2 (centres unmarked) [UM0142121:01, Stiripentol] | 12.44% |  |
| C=CC(=O)Nc1cccc(C)c1Nc1ncc2cc(-c3c(Cl)c(OC)cc(OC)c3Cl)ccc2n1 [UM0142122:01, BLU9931] | 48.23% |  |
| CCCC[S+]([O-])c1sc2nc(-c3cccs3)cc(-c3ccccc3)c2c1N (centres unmarked) [UM0142124:01, SW033291] | 33.39% |  |
| CC(C)(CCCCCC(O)CCCCCC(C)(C)C(=O)O)C(=O)O [UM0142125:01, ETC-1002] | 5.399% |  |
| CNC(=O)c1ccccc1Oc1nc(Nc2cc(OC)c(OC)c(OC)c2)ncc1Br [UM0142126:01, SBI-0206965] | 34.96% |  |
| CNc1ncc2cc(-c3cc(NC(=O)NCCC(C)(C)C)c(F)cc3C)c(C)nc2n1 [UM0142127:01, LY3009120] | 13.32% |  |
| CN(C)C/C=C/C(=O)Nc1cccc(C(=O)Nc2cccc(Nc3ncc(Cl)c(-c4c[nH]c5ccccc45)n3)c2)c1 [UM0142128:01, THZ2] | 74.86% |  |
| CN1CCN(C(=O)c2ccc3cc(CCNc4ncnc5ccc(C#N)cc45)ccc3c2)CC1 [UM0142129:01, Senexin B] | 3.385% |  |
| CN1C(=O)c2sccc2N(C)c2nc(Nc3ccc(S(N)(=O)=O)cc3)ncc21 [UM0142130:01, XMU-MP-1] | 6.005% |  |
| Cc1c(-c2c(-c3ccc(F)o3)sc3ncnc(O[C@H](Cc4ccccc4OCc4ccnn4CC(F)(F)F)C(=O)O)c23)ccc(OCCN2CCN(C)CC2)c1Cl [UM0142131:01, S63845] | 20.59% |  |
| COc1ccc(S(=O)(=O)N2CCC(N3CCC(C)CC3)CC2)cc1 [UM0142132:01, TASIN-1] | 4.343% |  |
| Cn1c2ccccc2c2c3c(c4c5ccccc5n(CCC#N)c4c21)C(=O)NC3=O [UM0142134:01, ICP 103] | 13.04% |  |
| Nc1cc(F)ccc1NC(=O)/C=C/c1cnn(C/C=C/c2ccccc2)c1 [UM0142135:01, RGFP966] | 7.983% |  |
| O=C(NCC1(c2nc(-c3ccccc3)cs2)CCOCC1)c1cccc(-c2noc(C(F)(F)F)n2)c1 [UM0142136:01, TMP269] | 21.99% |  |
| O=C(c1cccc(Cl)c1F)N1CCN(Cc2cccc(Nc3nccs3)n2)CC1 [UM0142137:01, MK-8745] | 20.15% |  |
| CSc1cccc(Nc2ncc3cc(-c4c(Cl)cccc4Cl)c(=O)n(C)c3n2)c1 [UM0142139:01, PD173955] | 37.99% |  |
| CCCCCCCCCCCCCCCCn1cc[n+](Cc2ccccc2)c1C [UM0142140:01, NH125] | 8.181% |  |
